For assay [1], the system named is S. aureus Col (Meth^R) (lac^-). Kind of assay: MIC by agar dilution, S. aureus Col (Meth^R) (lac^-). The format is cell-based. The following applies: Staphylococcus aureus; agar dilution; S. aureus Col (Meth^R) (lac^-); read-out: MIC. On the procedure:
The compounds of the invention were evaluated against several β-lactamresistant bacteria strains by determining the minimum inhibitory concentration (MIC, μg/ml) of each compound with respect to each strain. The MIC, the lowest concentration of antibiotic which inhibits growth of the test organism, was determined by the agar dilution method.
To determine the MIC for bacterial isolates, the test compound was incorporated in a series of two-fold dilutions into liquified Mueller-Hinton agar. Upon solidification, a number of different bacterial strains were spot inoculated with a replicating device onto the agar surface. […] The procedures used in these studies have been standardized by the National Committee for Clinical Laboratory Standards (NCCLS), as per the NCCLS publication entitled METHODS FOR DILUTION ANTIMICROBIAL SUSCEPTIBILITY TESTS (1991), which is incorporated herein by reference.
Aliquots of antimicrobial agents were prepared in phosphate buffered saline (PBS) at pH 7.2. Tween 20 or DMSO was used as a solubilizing vehicle as needed. Standard methods of vortexing, sonicating and gentle heat were used to facilitate solubilizing the test agent. Typically, the concentration of the stock solution was 10× that of the highest drug concentration tested. A 1.28 mg/mL stock solution was used with a subsequent highest working concentration of 128 μg/mL. Serial two-fold dilutions were done through ≤0.25 μg/mL. Each drug level was tested in duplicate. Two-fold drug dilutions were done in sterile 50 mL tubes with a final drug volume of 5 mL. Upon the addition of 45 mL of molten agar, a 10-fold dilution resulted. Two, 25 mL. plates were then poured into 15×150 mm square Petri plates with grids and allowed to harden.
A control plate with a reference drug, either cefotaxime, vancomycin or imipenem, was used as the positive growth control. Stock concentrations of reference antibiotics were prepared and frozen at -80° C. Upon preparation, the control plates were sealed and stored in the refrigerator for up to 1 week prior to use; however, imipenem control plates had to be prepared just prior to use. All test plates were used within 24 hours of preparation.
Satisfactory results were obtained where the inoculum contained about 10^4 colony forming units (cfu) ±0.5 logs. Starting with pure cultures of the test isolates on agar plates, a few isolated colonies were transferred to a tube of nutrient broth and allowed to grow 4-6 hours at 35°-36° C. to reach log-phase growth. Dropwise addition of the broth culture to PBS was done to match a 0.5 McFarland turbidity standard equal to 10^8 cfu/mL. This was further diluted ten-fold in PBS to reach a working inoculum concentration of 10^7 cfu/mL. When 1 μL of the working inoculum was applied to the agar surface a concentration of about 10^4 cfu per spot was obtained.
Disposable sterile 1 μL loops were used to inoculate test plates, with each isolate in a designated grid on the agar plate. An alternate method of inoculation involved the use of a replica plater, a device with 48 steel pins allowing the simultaneous inoculation of multiple isolates. After the spots had dried, the plates were incubated at 35°-36° C. for 16-20 hours. Endpoints were assessed as the minimum inhibitory concentration (MIC) of antimicrobial agent.
The novel agents of this invention are notable for their enhanced activity against S. aureus Col and Enterococci (E. faecium and E. faecalis). The S. aureus Col strain is a high-level PBP2a producer, whereas S. aureus Col 8A, its isogenic partner, lacks PBP2a. […] Thus, the compounds of the present invention are effective against PBP2a-producing bacteria.

In assay [2] the test system is methicillin-susceptible S. aureus strain ATCC 13709. Put plainly: murine model for lethal bacteremic peritonitis. The assay is classed as in vivo, female Swiss-Webster mice. The following applies: subcutaneous, 72 h. The procedure: Groups of 5 female Swiss-Webster mice (Simonsen, Gilroy, Calif.) each are challenged by the intraperitoneal (IP) route with tenfold increments of a bacterial inoculum. This permits calculation of the mean lethal dose (LD50) and the LD100. For preliminary evaluation of a new antibiotic, mice are challenged IP with an LD100 titer of bacteria. In two equal doses administered at the time of bacterial challenge and 2 hours later, groups of 10 mice each are treated subcutaneously with two-fold increments of the test drug and an antibiotic of known efficacy in mice and humans (i.e., positive control). Mice are observed for 72 h. Those alive at 72 h are considered long term survivors. The total drug dose in mg/kg that protects 50% of mice in a group from death is termed the mean protective dose (PD50). PD50 s are similarly determined for several pathogens. The quantitative endpoints for the new drug are then compared with those obtained with reference antibiotics.
Six ten-fold dilutions of inoculum suspended in 0.5 mL of sterilized 7% hog gastric mucin (Sigma) are injected IP in groups of 5 mice each. A control group of 5 mice receive mucin alone. Mice are observed for 72 h. Those alive at 72 h are considered long term survivors. The mean lethal dose (LD50) and 100% lethal dose (LD100) are determined by the probit test.
For antibiotic efficacy studies, mice are challenged IP with bacterial titers that will afford an LD100 for the test strain. In two equal doses administered at the time of bacterial challenge and 2 hours later, groups of 10 mice each are treated by the subcutaneous route (SC) with twofold increments of the test antibiotic; another group is treated similarly with a reference antibiotic of known efficacy in animals and man. Drug doses can range from 0.01 to 512 mg/kg. If the drug is poorly soluble, Tween 20 or propylene glycol will be employed to solubilize the drug. Animals are observed for 72 h. The 50% protective dose (PD50) is calculated in mg/kg by the probit method. The PD50 is the same as the 50% effective dose (ED50) and the 50% curative dose (CD50). Samples of blood from the hearts of all animals that die and from half the mice that survive are cultured on brain-heart infusion agar. Animals that received a protective dosage of the test drug will be alive at 72 h, although they may appear moderately ill to very ill during the observation period. […] Most of these mice will die within 6 to 48 h. Those alive at 72 h will be considered long term survivors.
(Compound numbers correspond to those in MIC tables; data
reported for challenge with methicillin-susceptible S. aureus

≈ marks a conversion by molar mass, not a printed value. Where a name gives a salt, the structure may show the parent alone.

For `O=C(Cc1ccccc1)N[C@@H]1C(=O)N2C(C(=O)O)=C(Sc3nnnn3-c3ccccc3)CS[C@H]12` [Cmpd 94, (7R)-7-[(Phenylacetyl)amino]-3-(1-N-phenyltetrazol-5-ylthio)-3-cephem-4-carboxylic acid], the minimum inhibitory concentration (MIC) in assay [1] was 4 µg/mL (≈ 8.09 µM).

Turning to `O=C(Cc1ccccc1)N[C@@H]1C(=O)N2C(C(=O)O)=C(Sc3ccc(Cl)cc3Cl)CS[C@H]12` [Cmpd 28, (7R)-7-[(Phenylacetyl)amino]-3-(2,4-dichlorophenylthio)-3-cephem-4-carboxylic acid], the MIC in assay [1] turned out to be 1 µg/mL (≈ 2.02 µM).

On to `O=C(Cc1ccccc1)N[C@@H]1C(=O)N2C(C(=O)O)=C(Sc3ccc(CSc4ncn[nH]4)cc3)CS[C@H]12` [Cmpd 65, (7R)-7-[(Phenylacetyl)amino]-3-(4-(1,2,4-triazol-5-ylthiomethyl)phenylthio)-3-cephem-4-carboxylic acid], for which, in assay [1], the MIC was 8 µg/mL (≈ 14.8 µM).

For `O=C(O)C1=C(Sc2ccnn2-c2ccccc2)CS[C@@H]2[C@H](NC(=O)C(=NO)c3ccco3)C(=O)N12` [Cmpd 121, (7R)-7-[2-(2-furyl)-2-(hydroxyimino)acetamido]-3-(1-N-phenylpyrazol-5-ylthio)-3-cephem-4-carboxylic acid], the MIC in assay [1] came to 4 µg/mL (≈ 7.82 µM).

On to `N#Cc1ccc(-c2ccccc2SC2=C(C(=O)O)N3C(=O)[C@@H](NC(=O)Cc4ccccc4)[C@H]3SC2)cc1` [Cmpd 23, (7R)-7-[(Phenylacetyl)amino]-3-(2-(4-cyanophenyl)phenylthio)-3-cephem-4-carboxylic acid], for which, in assay [1], the MIC turned out to be 2 µg/mL (≈ 3.79 µM).

`COc1ccc(CC(=O)N[C@@H]2C(=O)N3C(C(=O)O)=C(Sc4ccccc4I)CS[C@H]23)cc1` [Cmpd 29, (7R)-7-[(p-Methoxyphenylacetyl)amino]-3-(o-iodophenylthio)-3-cephem-4-carboxylic acid]: in assay [1], the minimal inhibitory concentration (MIC) stood at 1 µg/mL (≈ 1.72 µM).

For the molecule `O=C(Cc1ccccc1)N[C@@H]1C(=O)N2C(C(=O)O)=C(Sc3ccc4c(c3)oc3ccccc34)CS[C@H]12` [Cmpd 7, (7R)-7-[(Phenylacetyl)amino]-3-(dibenzofuranyl-3-thio)-3-cephem-4-carboxylic acid], the MIC in assay [1] was 4 µg/mL (≈ 7.74 µM).

Turning to `COc1ccc(Cc2ccc(-c3ccccc3SC3=C(C(=O)O)N4C(=O)[C@@H](NC(=O)Cc5ccccc5)[C@H]4SC3)s2)cc1` [Cmpd 43, (7R)-7-[(Phenylacetyl)amino]-3-(2-(2-(4-methoxyphenylmethyl)thien-5-yl)phenylthio)-3-cephem-4-carboxylic acid], the minimal inhibitory concentration (MIC) in assay [1] was 4 µg/mL (≈ 6.36 µM).

With `O=C(Cc1ccccc1)N[C@@H]1C(=O)N2C(C(=O)O)=C(Sc3ccc(-c4ccccc4)cc3F)CS[C@H]12` [Cmpd 13, (7R)-7-[(Phenylacetyl)amino]-3-(2-fluoro-4-biphenylthio)-3-cephem-4-carboxylic acid], the MIC in assay [1] worked out at 4 µg/mL (≈ 7.68 µM).

On to `O=C(Cc1ccccc1)N[C@@H]1C(=O)N2C(C(=O)O)=C(Sc3cccc(I)c3)CS[C@H]12` [Cmpd 2, (7R)-7-[(Phenylacetyl)amino]-3-(m-iodophenylthio)-3-cephem-4-carboxylic acid], for which the MIC in assay [1] came out at 2 µg/mL (≈ 3.62 µM).

For the molecule `Nc1nc(/C(=N/O)C(=O)N[C@@H]2C(=O)N3C(C(=O)O)=C(Sc4ccccc4I)CS[C@H]23)cs1` [Cmpd 22, (7R)-7-[(Z)-2-(aminothiazol-4-yl)-2-(hydroxyimino)acetamido]-3-(o-iodophenylthio)-3-cephem-4-carboxylic acid], the MIC in assay [1] stood at 2 µg/mL (≈ 3.31 µM).

For the molecule `N=C(N)SCc1cccc(SC2=C(C(=O)O)N3C(=O)[C@@H](NC(=O)Cc4ccccc4)[C@H]3SC2)c1` [Cmpd 80, (7R)-7-[(Phenylacetyl)amino]-3-(3-isothiouroniummethylphenylthio)-3-cephem-4-carboxylate, inner salt], the MIC in assay [1] was found to be 2 µg/mL.

Regarding `O=C(Cc1ccccc1)N[C@@H]1C(=O)N2C(C(=O)O)=C(Sc3ccnn3-c3cccc([N+](=O)[O-])c3)CS[C@H]12` [Cmpd 113, (7R)-7-[(Phenylacetyl)amino]-3-(1-N-(3-nitrophenyl)pyrazol-5-ylthio)-3-cephem-4-carboxylic acid], in assay [1], the MIC is 4 µg/mL (≈ 7.44 µM).

Consider `N=C(N)SCc1ccccc1SC1=C(C(=O)O)N2C(=O)[C@@H](NC(=O)/C(=N\O)c3ccccc3)[C@H]2SC1` [Cmpd 136, (7R)-7-[(Z)-2-(Phenyl)-2-(hydroxyimino)acetamido]-3-(2-isothiouroniummethylphenylthio)-3-cephem-4-carboxylate, inner salt], for which the MIC in assay [1] worked out at 2 µg/mL.

For `COc1ccc(CC(=O)N[C@@H]2C(=O)N3C(C(=O)O)=C(Sc4cc(Cl)ccc4Cl)CS[C@H]23)cc1` [Cmpd 32, (7R)-7-[(p-Methoxyphenylacetyl)amino]-3-(2,5-dichlorophenylthio)-3-cephem-4-carboxylic acid], the MIC in assay [1] turned out to be 1 µg/mL (≈ 1.9 µM).

`O=C(Cc1ccccc1)N[C@@H]1C(=O)N2C(C(=O)O)=C(Sc3ccccc3CSc3ncn[nH]3)CS[C@H]12` [Cmpd 67, (7R)-7-[(Phenylacetyl)amino]-3-(2-(1,2,4-triazol-5-ylthiomethyl)phenylthio)-3-cephem-4-carboxylic acid]: in assay [1], the MIC was found to be 4 µg/mL (≈ 7.41 µM).

In the case of `CN[C@H](CC(C)C)C(=O)N[C@H]1C(=O)N[C@@H](CC(N)=O)C(=O)N[C@H]2C(=O)N[C@H]3C(=O)N[C@H](C(=O)N[C@H](C(=O)O)c4cc(O)cc(O)c4-c4cc3ccc4O)[C@H](O)c3ccc(c(Cl)c3)Oc3cc2cc(c3O[C@@H]2O[C@H](CO)[C@@H](O)[C@H](O)[C@H]2O[C@H]2C[C@](C)(N)[C@H](O)[C@H](C)O2)Oc2ccc(cc2Cl)[C@H]1O` [Vancomycin, reference compound], the Mortality in assay [2] (dose 0.625 mg/kg) was 8/10; in assay [2] (dose 1.25 mg/kg) it was 6/10; in assay [2] (dose 2 mg/kg) it was 8/10; in assay [2] (dose 2.5 mg/kg), 5/10; in assay [2] (dose 4 mg/kg) it was 2/10; in assay [2] (dose 5 mg/kg), 5/10. Besides, the Mortality in assay [2] (dose 8 mg/kg) is 0/10; in assay [2] (dose 10 mg/kg), 2/10; in assay [2] (dose 16 mg/kg), 0/10. The ED50 in assay [2] (two equal doses, S. aureus ATCC 13709 IP challenge, 4320 min) is 2.79 mg/kg.

The values above are taken from patent US5698547A, “Cephalosporin antibiotics” (Microcide Pharmaceuticals, Inc., priority 1995, dated 1997).
